Columns and labels:
HSV-1 protease = target: T1, HSV-1 protease (Human herpesvirus 1, UniProt P10210); assay: Enzymatic assay for HSV-1 protease (assembly) inhibitor, fluorescence polarization; format: biochemical; details: read-out: HSV-1 Enzyme inhibition IC50
T1 construct: 6xHis (N); made in house; host or cells: baculovirus expression system
Protocol: An enzymatic assay method for an HSV-1 protease (assembly) inhibitor
The activity of an assembly protease was determined by fluorescence polarization. Biotin-gamma-amino butyrate-[…]-DTAF was used as a fluorescent substrate in accordance with an HSV-1 release and cleavage site. […] Changes in the sizes of fluorescent substrate molecules that increased with the use of avidin as a reaction terminator were assayed by fluorescence polarization.
The test compound was dissolved in DMF, and the resultant was diluted 5-fold with an assay buffer. 6.5 μl thereof was added to wells of a 96-well plate (a U-bottomed 96-well plate, Coster) that had previously been blocked with a blocking solution (10 mM Tris-HCl (pH 8.0), 150 mM sodium chloride, 0.05% Tween 20, 1 mg/ml of BSA). The enzyme was diluted to 21.3 μg/ml with an assay buffer (1M sodium citrate, 50 mM sodium phosphate (pH 7.4), 100 mM sodium chloride, 20% glycerol, 2 mM TCEP), and 48.5 μl of the resultant was added to each well. The plate was incubated at room temperature for 30 minutes, and 10 μl of 62.5 μg/ml substrate solution was then added to each well. The plate was incubated at room temperature for 60 minutes, and 50 μl of 2 mg/ml avidin phosphate buffer solution (50 mM sodium phosphate, 100 mM sodium chloride (pH 7.4)) was added to each well. The activity was determined in comparison with a compound without protease inhibitor using a microplate reader for fluorescence polarization.
HSV-1 protease was purified from a vaculovirus that had expressed a DNA construct encoding the reading frame for HSV-1UL26. This construct had further encoded 6 histidine residues at the amino terminus of the protease. These additional histidine residues impart affinity ligands purified by nickel-nitriloacetic acid-agarose (Qiagen). The purified protease was stored as a stock solution for a 20 mM HEPES buffer (pH 8.5, containing 20% v/v glycerin). This stock solution was diluted with an assay buffer and then used in the enzyme reaction.
In accordance with the cleavage specificity of the HSV-1 protease at the “release site” of the assembled protein, a specific substrate was synthesized (Diianni et al., J. Biol. Chem. 268, 2048 (1993)). This assembly protein-release site had the sequence • HTYLQA*SEKFKMW • , and the substrate used was biotin-gamma-amino butyrate-HTYLQA*SERFRIK-DTAF. This is a standard method for peptide synthesis, for example, as in the a method described in “The Practice of Peptide Synthesis” (Bodansky and Bodansky (1984)). The product was stored as a 2.5 mg/ml stock solution in DMF. The resultant was diluted to 62.5 μg/ml with a phosphate buffer (50 mM sodium phosphate, 100 mM sodium chloride, (pH 7.4)) immediately before its use.
An assay buffer (1M sodium citrate, 50 mM sodium phosphate (pH 7.4), 100 mM sodium chloride, 20% glycerol, 2 mM TCEP) was used to dilute a stock solution for the enzyme and that for the inhibitor.

HSV-1 = assay: Antiviral activity, HSV-1 in Vero cells, plaque method; format: cell-based; details: Human alphaherpesvirus 1, 20 hours, 90% inhibition of plaque formation
Protocol: An Assay Method for Antiviral Activity These complementary assay methods examine the capacity of a compound to inhibit the generation of new viruses and to inhibit the toxicity of the compound against the host cell. Toxicity indirectly decreases the generation of viruses. Thus, it is important to simultaneously conduct both assays in order to directly compare the results. The Vero cells were sown on a 96-well plate and then cultured overnight. The culture supernatant was removed, and 100 μl of 2% FBS-DMEM containing 50,000 plaque-forming units (hereinafter abbreviated as “pfu”) of HSV-1 was added. A viral solution was removed and 200 μl of 2% FBS-DMEM comprising a test compound was added. In this case, a substance to which 2% FBS-DMEM not comprising any test compound had been added was determined as a control. These infected cells were incubated in the presence of 5% CO2 at 37° C. for 20 hours, and the medium was once allowed to freeze at −80° C. The culture solution was dissolved, and the amount of viruses in the culture solution was assayed by the plaque method. The concentration of the test compound when it inhibited 90% of plaque formation relative to the control was determined to be EC 90.

T1 sequence (P10210 1-247): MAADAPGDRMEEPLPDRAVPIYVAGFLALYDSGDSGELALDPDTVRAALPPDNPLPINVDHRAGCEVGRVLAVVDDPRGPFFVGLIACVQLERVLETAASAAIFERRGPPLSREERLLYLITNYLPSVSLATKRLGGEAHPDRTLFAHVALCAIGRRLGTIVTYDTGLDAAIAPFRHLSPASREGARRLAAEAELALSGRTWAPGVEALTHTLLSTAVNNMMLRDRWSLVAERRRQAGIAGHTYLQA

Row | SMILES | IC50 (HSV-1 protease) | EC90 (HSV-1)
1 | Cc1c(NC(=O)CCNC(=O)OC(C)(C)C)ccc2nc(N[C@H](C)C(=O)N(C)CCc3ccccn3)oc(=O)c12 [Compound No.227, [2-(5-Methyl-2-{1R-[methyl-(2-pyridin-2-yl-ethyl)-carbamoyl]-ethylamino}-4-oxo-4H-benzo[d][1,3]oxazin-6-ylcarbamoyl)-ethyl]-carbamic acid tert-butyl ester] | 2.4 µM | > 20 µM
2 | Cc1c(NC(=O)OC(C)(C)C)ccc2nc(NC3(C(=O)N(C)CCc4cccnc4)CC3)oc(=O)c12 [Compound No.125, (5-Methyl-2-{1-[methyl-(2-pyridin-3-yl-ethyl)-carbamoyl]-cyclopropylamino}-4-oxo-4H-benzo[d][1,3]oxazin-6-yl)-carbamic acid tert-butyl ester] | 2.1 µM | > 12.5 µM
3 | Cc1c(NC(=O)OC(C)(C)C)ccc2nc(N[C@H](C)C(=O)N(C)CCc3ccccn3)oc(=O)c12 [Compound No.132, (5-Methyl-2-{1R-[methyl-(2-pyridin-2-yl-ethyl)-carbamoyl]-ethylamino}-4-oxo-4H-benzo[d][1,3]oxazin-6-yl)-carbamic acid tert-butyl ester] | 0.8 µM | 15.8 µM
4 | Cc1c(NC(=O)CCCNC(=O)c2cccs2)ccc2nc(NC(C)(C)C(=O)N(C)CCc3ccccn3)oc(=O)c12 [Compound No.212, Thiophene-2-carboxylic acid [3-(5-methyl-2-{1-methyl-1-[methyl-(2-pyridin-2-yl-ethyl)-carbamoyl]-ethylamino}-4-oxo-4H-benzo[d][1,3]oxazin-6-ylcarbamoyl)-propyl]-amide] | 0.3 µM | > 12.5 µM
5 | Cc1c(NC(=O)c2cccs2)ccc2nc(NC(C)(C)C(=O)N(C)CCc3ccccn3)oc(=O)c12 [Compound No.134, Thiophene-2-carboxylic Acid (5-methyl-2-{1-methyl-1-[methyl-(2-pyridin-2-yl-ethyl)-carbamoyl]-ethylamino}-4-oxo-4H-benzo[d][1,3]oxazin-6-yl)-amide] | 0.9 µM | > 12.5 µM
6 | Cc1c(NC(=O)c2cccs2)ccc2nc(N[C@@H](C)C(=O)N(C)CCc3ccccn3)oc(=O)c12 [Compound No.135, Thiophene-2-carboxylic acid (5-methyl-2-{1S-[methyl-(2-pyridin-2-yl-ethyl)-carbamoyl]-ethylamino}-4-oxo-4H-benzo[d][1,3]oxazin-6-yl)-amide] | 1.3 µM | > 12.5 µM
7 | Cc1c(NC(=O)CCNC(=O)OCc2ccccc2)ccc2nc(N[C@@H](C)C(=O)N(C)CCc3ccccn3)oc(=O)c12 [Compound No.206, [2-(5-Methyl-2-{1S-[methyl-(2-pyridin-2-yl-ethyl)-carbamoyl]-ethylamino}-4-oxo-4H-benzo[d][1,3]oxazin-6-ylcarbamoyl)-ethyl]-carbamic acid benzyl ester] | 1.1 µM | > 12.5 µM
8 | Cc1c(NC(=O)CCCNC(=O)c2ccc(C(F)(F)F)cc2)ccc2nc(NC(C)(C)C(=O)N(C)CCc3ccccn3)oc(=O)c12 [Compound No.213, N-[3-(5-Methyl-2-{1-methyl-1-[methyl-(2-pyridin-2-yl-ethyl)-carbamoyl]-ethylamino}-4-oxo-4H-benzo [d][1,3]oxazin-6-ylcarbamoyl)-propyl]-4-trifluoromethyl-benzamide] | 0.3 µM | > 12.5 µM
9 | Cc1c(NC(=O)OC(C)(C)C)ccc2nc(NC3(C(=O)N(C)Cc4cccnc4)CC3)oc(=O)c12 [Compound No.118, {5-Methyl-2-[1-(methyl-pyridin-3-ylmethyl-carbamoyl)-cyclopropylamino]-4-oxo-4H-benzo[d][1,3]oxazin-6-yl}-carbamic acid tert-butyl ester] | 2.3 µM | > 12.5 µM
10 | Cc1c(NC(=O)CCCNC(=O)c2ccncc2)ccc2nc(NC(C)(C)C(=O)N(C)CCc3ccccn3)oc(=O)c12 | 0.5 µM | > 12.5 µM
11 | Cc1c(NC(=O)CCNC(=O)OC(C)(C)C)ccc2nc(NC(C)(C)C(=O)N(C)CCc3ccccn3)oc(=O)c12 [Compound No.201, [2-(5-methyl-2-{1-methyl-1-[methyl-(2-pyridin-2-yl-ethyl)-carbamoyl]-ethylamino}-4-oxo-4H-benzo[d][1,3]oxazin-6-ylcarbamoyl)-ethyl]-carbamic Acid Tert-Butyl Ester] | 1.1 µM | > 12.5 µM

Continued by falling IC50 (HSV-1 protease), values first:

Row | IC50 (HSV-1 protease) | EC90 (HSV-1) | SMILES
12 | 12.2 µM | 6.6 µM | Cc1c(NC(=O)OC(C)(C)C)ccc2nc(NC(C)(C)C(=O)N(C)CCc3ccccc3)oc(=O)c12 [compound 229, {5-Methyl-2-[1-methyl-1-(methyl-phenethyl-carbamoyl)-ethylamino]-4-oxo-4H-benzo[d][1,3]oxazin-6-yl}-carbamic acid tert-butyl ester, reference compound]
13 | 1.6 µM | > 12.5 µM | Cc1c(NC(=O)OC(C)(C)C)ccc2nc(NC3(C(=O)N(C)CCc4ccccn4)CC3)oc(=O)c12 [Compound No.122, (5-Methyl-2-{1-[methyl-(2-pyridin-2-yl-ethyl)-carbamoyl]-cyclopropylamino}-4-oxo-4H-benzo[d][1,3]oxazin-6-yl)-carbamic acid tert-butyl ester]
14 | 0.9 µM | > 12.5 µM | Cc1c(NC(=O)CCCNC(=O)c2ccc(C(F)(F)F)cc2)ccc2nc(N[C@@H](C)C(=O)N(C)CCc3ccccn3)oc(=O)c12 [Compound No.219, N-[3-(5-Methyl-2-{1S-[methyl-(2-pyridin-2-yl-ethyl)-carbamoyl]-ethylamino}-4-oxo-4H-benzo[d][1,3]oxazin-6-ylcarbamoyl)-propyl]-4-trifluoromethyl-benzamide]
15 | 0.9 µM | > 20 µM | Cc1c(NC(=O)OC(C)(C)C)ccc2nc(NCCC(=O)N(C)CCc3ccccn3)oc(=O)c12 [Compound No.133, (5-Methyl-2-{2-[methyl-(2-pyridin-2-yl-ethyl)-carbamoyl]-ethylamino}-4-oxo-4H-benzo[d][1,3]oxazin-6-yl)-carbamic acid tert-butyl ester]
16 | 0.7 µM | > 12.5 µM | Cc1c(NC(=O)OC(C)(C)C)ccc2nc(NC(C)(C)C(=O)N(C)Cc3cccnc3)oc(=O)c12 [Compound No.117, {5-Methyl-2-[1-methyl-1-(methyl-pyridin-3-ylmethyl-carbamoyl)-ethylamino]-4-oxo-4H-benzo[d][1,3]oxazin-6-yl}-carbamic acid tert-butyl ester]
17 | 0.5 µM | > 12.5 µM | CCCCc1ccc(C(=O)NCCCC(=O)Nc2ccc3nc(N[C@@H](C)C(=O)N(C)CCc4ccccn4)oc(=O)c3c2C)cc1 [Compound No.220, 4-Butyl-N-[3-(5-methyl-2-{1S-[methyl-(2-pyridin-2-yl-ethyl)-carbamoyl]-ethylamino}-4-oxo-4H-benzo [d][1,3]oxazin-6-ylcarbamoyl)-propyl]-benzamide]
18 | 0.4 µM | 10.1 µM | Cc1c(NC(=O)OC(C)(C)C)ccc2nc(NC3(C(=O)N(C)CCc4ccncc4)CCCC3)oc(=O)c12 [Compound No.128, (5-Methyl-2-{1-[methyl-(2-pyridin-4-yl-ethyl)-carbamoyl]-cyclopentylamino}-4-oxo-4H-benzo[d][1,3]oxazin-6-yl)-carbamic acid tert-butyl ester]
